Measured values taken from patent US9625458B2, “Biosensor” (priority 2002, dated 2017).

Tests used:
[1] = molecular target: T1, E. coli arabinose binding protein variant C64A/L253C (Escherichia coli, UniProt P02924, C87A/L276C); assay: Arabinose affinity by tryptophan fluorescence
T1 construct: initiator methionine (N); Gly-Ser-Gly-(His)n or Gly-Ser-(His)n (n = 5, 6 or 10) (C); made in house; host or cells: E. coli BL21-DE3
Excerpt: (§1) Molecular Cloning. […] All clones and mutations were confirmed by nucleotide sequencing.
(§2) Cysteine point mutations were introduced by the PCR overlap method (Ho et al., Gene 77:51-59, 1989). Mutant proteins typically expressed as well as the wild type protein. […] In the case of Fe(III) BP, all mutations were constructed in the E57D background. […] This permitted straightforward determination of Fe(III) affinity by direct titration with Fe(III) citrate at nanomolar concentrations of Fe(III) BP.
(§3) The effect on dissociation constants is determined not only by the attachment site, but also by the nature of the attached fluorophore, as illustrated for arabinose BP. Dissociation constants for arabinose of the five cysteine-substitution mutants (all with the C64A mutation), measured by tryptophan fluorescence, are 5.0 μM (F23C), 3.2 μM (L253C), 3.4 μM (D257C), 7.6 μM (L298C), and 1.6 μM (K301C).

[2] = molecular target: T2, E. coli arabinose binding protein variant C64A/K301C (Escherichia coli, UniProt P02924, C87A/K324C); assay: Arabinose affinity by tryptophan fluorescence
T2 construct: initiator methionine (N); Gly-Ser-Gly-(His)n or Gly-Ser-(His)n (n = 5, 6 or 10) (C); made in house; host or cells: E. coli BL21-DE3
T2 sequence (P02924 24-329 C87A/K324C): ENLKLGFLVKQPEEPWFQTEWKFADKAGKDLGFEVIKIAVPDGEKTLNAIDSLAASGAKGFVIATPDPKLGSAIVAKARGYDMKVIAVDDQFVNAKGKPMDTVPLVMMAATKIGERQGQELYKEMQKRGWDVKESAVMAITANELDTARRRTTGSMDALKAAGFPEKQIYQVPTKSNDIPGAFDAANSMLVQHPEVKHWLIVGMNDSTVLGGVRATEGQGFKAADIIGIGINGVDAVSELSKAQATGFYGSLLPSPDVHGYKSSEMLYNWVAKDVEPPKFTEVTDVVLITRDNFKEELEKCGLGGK
Excerpt: as §1, §2, §3

[3] = molecular target: T3, E. coli arabinose binding protein variant C64A/D257C (Escherichia coli, UniProt P02924, C87A/D280C); assay: Arabinose affinity by tryptophan fluorescence
T3 construct: initiator methionine (N); Gly-Ser-Gly-(His)n or Gly-Ser-(His)n (n = 5, 6 or 10) (C); made in house; host or cells: E. coli BL21-DE3
T3 sequence (P02924 24-329 C87A/D280C): as the sequence (P02924 24-329 C87A/K324C) above, with D257C, C301K counted along it
Excerpt: as §1, §2, §3

[4] = molecular target: T4, E. coli arabinose binding protein variant C64A/L298C (Escherichia coli, UniProt P02924, C87A/L321C); assay: Arabinose affinity by tryptophan fluorescence
T4 construct: initiator methionine (N); Gly-Ser-Gly-(His)n or Gly-Ser-(His)n (n = 5, 6 or 10) (C); made in house; host or cells: E. coli BL21-DE3
T4 sequence (P02924 24-329 C87A/L321C): as the sequence (P02924 24-329 C87A/K324C) above, with L298C, C301K counted along it
Excerpt: as §1, §2, §3

[5] = molecular target: T5, E. coli arabinose binding protein variant C64A/F23C (Escherichia coli, UniProt P02924, C87A/F46C); assay: Arabinose affinity by tryptophan fluorescence
T5 construct: initiator methionine (N); Gly-Ser-Gly-(His)n or Gly-Ser-(His)n (n = 5, 6 or 10) (C); made in house; host or cells: E. coli BL21-DE3
T5 sequence (P02924 24-329 F46C/C87A): as the sequence (P02924 24-329 C87A/K324C) above, with F23C, C301K counted along it
Excerpt: as §1, §2, §3

[6] = molecular target: T6, E. coli arabinose binding protein variant C64A/K301C, fluorophore conjugate (Escherichia coli, UniProt P02924, C87A/K324C); assay: Fluorimetric titration of fluorophore conjugates
T6 construct: initiator methionine (N); Gly-Ser-Gly-(His)n or Gly-Ser-(His)n (n = 5, 6 or 10) (C); made in house; host or cells: E. coli BL21-DE3
T6 sequence (P02924 24-329 C87A/K324C): as the sequence (P02924 24-329 C87A/K324C) above
Excerpt: (§4) Molecular Cloning. […] Amplified products were cloned into one of the protein expression vectors pAED4 (Doering, “Functional and structural studies of a small f-actin binding domain” in Ph.D. thesis, Massachusetts Institute of Technology, 1992); pKK223-3 (Brosius & Holy, Proc. Natl. Acad. Sci. USA 81:6929-6933, 1984); or pET vectors (Studier et al., Meth. Enzymol. 185:60-89, 1990) (Novagen). N-terminal oligonucleotide primers were designed to clone only the processed periplasmic form, deleting the signal sequence. The C-terminal primer was designed to append the sequence Gly-Ser-Gly-(His)n or Gly-Ser-(His)n, where n=5, 6, or 10. Two tandem stop codons (TAATGA) follow the last His codon. […] Single amino acid substitutions were generated by overlapping PCR mutagenesis (Ho et al., Gene 77:51-59, 1989). All clones and mutations were confirmed by nucleotide sequencing. In the case of arabinose BP, the single cysteine in the wild type sequence was replaced by alanine to eliminate the possibility of reporter group conjugation to this thiol (Miller et al., J. Biol. Chem. 254:7521-7528, 1979). Additionally the sequence of Fe(III) BP was mutated by substitution of Glu57 with Asp to raise the Kd to a concentration range conveniently measured using Fe(III) citrate.
(§5) Fluorophore conjugation to cysteine-substituted bPBPs. Thiol-reactive fluorophores obtained from Molecular Probes (Eugene, Oreg.) were 5-iodoacetamidofluorescein (fluorescein); N-(1-pyrene) iodoacetamide (pyrene); N,N′-dimethyl-N-(iodoacetyl)-N′-(7-nitrobenz-2-oxa-1,3-diazol-4-yl)ethylenediamide (NBD); N-((2-(iodoacetoxy)ethyl)-N-methyl)amino-7-nitrobenz-2-oxa-1,3-diazole (NBDE); and 6-acryloyl-2-dimethylaminonaphthalene (acrylodan). The styryl and naphthyl dyes JPW4039, JPW4042, and JPW4045 (FIG. 3) were synthesized at the University of Connecticut. All fluorophore conjugation steps were typically carried out at room temperature. To protein at a concentration of 100 μM was added tris-(2-carboxyethyl)phosphine HCl to a five-fold molar excess to reduce intermolecular disulfide bonds. A thiol-reactive fluorophore (20 to 25 mM in acetonitrile or dimethyl sulfoxide) was added in small aliquots to a five-fold molar excess over protein. Conjugation proceeded in the dark at room temperature for 4 hours, or overnight at 4° C. Separation of protein from unreacted fluorophore was achieved by exhaustive dialysis or by size-exclusion chromatography. The efficiency of reporter group attachment was assessed by determination of unreacted thiol with Ellman's reagent (Ellman, Arch. Biochem. Biophys. 74:443-450, 1958) or by measuring the ratio of fluorophore to protein from absorbance spectra of the purified conjugate.
(§6) Fluorimetry. All measurements were conducted with an SLM Aminco-Bowman series 2 fluorimeter, with sample stirring at 25° C. Fluorescence emission spectra were acquired with excitation and emission slit widths of 4 and 8 nm, respectively. Photomultiplier tube potential was maintained between 400 and 800 volts. Protein concentrations were in the range of 50 to 1000 nM. Fluorophore-specific excitation was at the following approximate wavelengths: tryptophan, 290 nm; acrylodan, 390 nm; fluorescein, 485 nm; pyrene, 340 nm; NBD and NBDE, 490 nm; JPW4039, 485 nm; JPW4042, 470 nm; JPW4045, 470 nm.
(§7) Corrections were made for dilution of the protein and for background signal from buffer. Binding curves were fit to binding isotherms using equation 3 or 4, as appropriate.
(§8) Analyte affinity measurements. […] The emission wavelength monitored was that of maximum difference in intensity between the ligand-free and bound states. For each conjugate, fluorescence intensiometric observations were fit to a hyperbolic binding isotherm for a two-state model (Marvin et al., Proc. Natl. Acad. Sci. USA 94:4366-4371, 1997): […]

[7] = molecular target: T7, E. coli arabinose binding protein variant C64A/L253C, fluorophore conjugate (Escherichia coli, UniProt P02924, C87A/L276C); assay: Fluorimetric titration of fluorophore conjugates
T7 construct: initiator methionine (N); Gly-Ser-Gly-(His)n or Gly-Ser-(His)n (n = 5, 6 or 10) (C); made in house; host or cells: E. coli BL21-DE3
T7 sequence (P02924 24-329 C87A/L276C): as the sequence (P02924 24-329 C87A/K324C) above, with L253C, C301K counted along it
Excerpt: as §4, §5, §6, §7, §8

[8] = molecular target: T8, E. coli arabinose binding protein variant C64A/D257C, fluorophore conjugate (Escherichia coli, UniProt P02924, C87A/D280C); assay: Fluorimetric titration of fluorophore conjugates; details: allosteric site
T8 construct: initiator methionine (N); Gly-Ser-Gly-(His)n or Gly-Ser-(His)n (n = 5, 6 or 10) (C); made in house; host or cells: E. coli BL21-DE3
T8 sequence (P02924 24-329 C87A/D280C): as the sequence (P02924 24-329 C87A/K324C) above, with D257C, C301K counted along it
Excerpt: as §4, §5, §6, §7, §8

[9] = molecular target: T9, E. coli arabinose binding protein variant C64A/F23C, fluorophore conjugate (Escherichia coli, UniProt P02924, C87A/F46C); assay: Fluorimetric titration of fluorophore conjugates; details: allosteric site
T9 construct: initiator methionine (N); Gly-Ser-Gly-(His)n or Gly-Ser-(His)n (n = 5, 6 or 10) (C); made in house; host or cells: E. coli BL21-DE3
T9 sequence (P02924 24-329 F46C/C87A): as the sequence (P02924 24-329 C87A/K324C) above, with F23C, C301K counted along it
Excerpt: as §4, §5, §6, §7, §8

[10] = molecular target: T10, E. coli arabinose binding protein variant C64A/L298C, fluorophore conjugate (Escherichia coli, UniProt P02924, C87A/L321C); assay: Fluorimetric titration of fluorophore conjugates; details: allosteric site
T10 construct: initiator methionine (N); Gly-Ser-Gly-(His)n or Gly-Ser-(His)n (n = 5, 6 or 10) (C); made in house; host or cells: E. coli BL21-DE3
T10 sequence (P02924 24-329 C87A/L321C): as the sequence (P02924 24-329 C87A/K324C) above, with L298C, C301K counted along it
Excerpt: as §4, §5, §6, §7, §8

[11] = molecular target: T11, E. coli arabinose binding protein C64A mutant (Escherichia coli, UniProt P02924, C87A); assay: Arabinose affinity of unconjugated arabinose BP C64A
T11 construct: initiator methionine (N); Gly-Ser-Gly-(His)n or Gly-Ser-(His)n (n = 5, 6 or 10) (C); made in house; host or cells: E. coli BL21-DE3
T11 sequence (P02924 24-329 C87A): as the sequence (P02924 24-329 C87A/K324C) above, with C301K counted along it
Excerpt: as §1, §2, §3

[12] = molecular target: T12, E. coli glutamate/aspartate binding protein (YBEJ, SEQ ID NO:3) variant T129C, fluorophore conjugate (Escherichia coli, UniProt P37902, T129C); assay: Fluorimetric titration of fluorophore conjugates; details: T129C-NBD
T12 construct: The underlined methionine is the initiation codon for expression of YBEJ used in the study; initiation methionine (N); Gly-Ser-Gly-(His)n or Gly-Ser-(His)n (C); made in house; host or cells: E. coli BL21-DE3
T12 sequence (P37902 other isoform, or with tags, fused parts or gaps T129C): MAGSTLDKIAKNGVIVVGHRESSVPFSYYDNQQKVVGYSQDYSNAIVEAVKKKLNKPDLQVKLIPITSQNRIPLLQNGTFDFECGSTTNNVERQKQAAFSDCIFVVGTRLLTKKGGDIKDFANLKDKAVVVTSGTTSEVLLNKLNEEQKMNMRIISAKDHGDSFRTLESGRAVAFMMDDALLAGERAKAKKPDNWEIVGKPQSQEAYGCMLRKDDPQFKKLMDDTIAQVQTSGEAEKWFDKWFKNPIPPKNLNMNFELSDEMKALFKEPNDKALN
Excerpt: as §4, §5, §6, §7, §8

[13] = molecular target: T13, E. coli glutamate/aspartate binding protein (YBEJ, SEQ ID NO:3) variant Q123C, fluorophore conjugate (Escherichia coli, UniProt P37902, Q123C); assay: Fluorimetric titration of fluorophore conjugates
T13 construct: The underlined methionine is the initiation codon for expression of YBEJ used in the study; initiation methionine (N); Gly-Ser-Gly-(His)n or Gly-Ser-(His)n (C); made in house; host or cells: E. coli BL21-DE3
T13 sequence (P37902 other isoform, or with tags, fused parts or gaps Q123C): as the sequence (P37902 other isoform, or with tags, fused parts or gaps T129C) above, with Q96C, C102T counted along it
Excerpt: as §4, §5, §6, §7, §8

[14] = molecular target: E. coli glucose binding protein variant W183C, fluorophore conjugate (Escherichia coli, UniProt P0AEE5, W206C); assay: biochemical
E. coli glucose binding protein variant W183C, fluorophore conjugate, sequence (P0AEE5 24-332 W206C limits assumed): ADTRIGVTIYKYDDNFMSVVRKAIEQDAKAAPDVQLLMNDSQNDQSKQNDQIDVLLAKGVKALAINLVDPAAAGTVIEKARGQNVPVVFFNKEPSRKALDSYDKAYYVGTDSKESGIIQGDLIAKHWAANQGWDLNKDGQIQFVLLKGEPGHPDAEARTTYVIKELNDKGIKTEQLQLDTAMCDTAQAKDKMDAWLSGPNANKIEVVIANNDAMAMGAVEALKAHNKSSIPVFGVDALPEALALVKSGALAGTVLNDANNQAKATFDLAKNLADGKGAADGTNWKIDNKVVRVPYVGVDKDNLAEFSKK
Procedure: The normal serum glucose range (euglycemia) of 4 to 6 mM is delimited by vertical lines.
as §4, §5, §6, §7
Analyte affinity measurements.

[15] = Acrylodan conjugate, allosteric site
[16] = JPW4039 conjugate, allosteric site

T1 sequence (P02924 24-329 C87A/L276C): as the sequence (P02924 24-329 C87A/K324C) above, with L253C, C301K counted along it

OC1OC[C@H](O)[C@H](O)[C@H]1O (stereo partly shown) [arabinose]
Kd [1]: 3.2 µM | Kd [2]: 1.6 µM | Kd [3]: 3.4 µM | Kd [4]: 7.6 µM | Kd [5]: 5 µM | Kd [6, 15]: 0.46 µM | Kd ([6]; Fluorescein conjugate, allosteric site): 24 µM | Kd [6, 16]: 77 µM | Kd ([6]; K301C-NBD conjugate): ~31 µM | Kd ([6]; NBD conjugate, allosteric site): 31 µM | Kd [7, 15]: 0.69 µM | Kd ([7]; Fluoresecin conjugate, allosteric site): 48 µM | Kd [7, 16]: 165 µM | Kd ([7]; L253C-NBD conjugate): 775 µM | Kd ([7]; L253C-acrylodan conjugate): 0.7 µM | Kd ([7]; L253C-fluorescein conjugate): ~48 µM | Kd ([7]; NBD conjugate, allosteric site): 775 µM | Kd ([8]; Acrylodan conjugate): 56 µM | Kd ([8]; Fluorescein conjugate): 4 µM | Kd ([8]; JPW4039 conjugate): 90 µM | Kd ([8]; NBD conjugate): 32 µM | Kd ([9]; Acrylodan conjugate): 3.9 µM | Kd ([9]; Fluorescein conjugate): 3.2 µM | Kd ([9]; JPW4039 conjugate): 38 µM | Kd ([9]; NBD conjugate): 5 µM | Kd ([10]; Acrylodan conjugate): 44 µM | Kd ([10]; JPW4039 conjugate): 70 µM | Kd ([10]; NBD conjugate): 56 µM | Kd [11]: ~2.2 µM

NC(=O)C[C@H](N)C(=O)O [asparagine]
Kd [12]: 5.4 µM | Kd [13]: 96 µM

OC[C@H]1OC(O)[C@H](O)[C@@H](O)[C@@H]1O (stereo partly shown) [glucose]
Kd ([14]; Kd, Acrylodan conjugate, endosteric site): 5980 µM | Kd ([14]; Kd, Fluorescein conjugate, endosteric site): 17600 µM | Kd ([14]; appKd, W183C-acrylodan, ratiometric, F450-459/F486-495): ~10400 µM | Kd ([14]; appKd, W183C-acrylodan, ratiometric, F450-459/F550-559): ~5000 µM | Kd ([14]; appKd, W183C-acrylodan, ratiometric, F472-481/F450-459): ~17400 µM | Kd ([14]; dissociation constant, W183C-acrylodan): 5980 µM
